According to patent US8247211B2, “Glycopeptide antibiotics” (American Cyanamid Company, priority 2001, dated 2012):
Values after ≈ are worked out from the molar mass of the structure shown.

Legend:
Test in all cases: In vitro antibacterial evaluation: minimum inhibitory concentration (MIC), broth dilution method
Format in all cases: cell-based
[1] = test system: Enterococcus sp.
Outline: (§1)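 Broth dilution per NCCLS M7-A2 in Muller-Hinton II […], inoculum 5×10^5 CFU/mL, antibiotic tested over 64-0.06 μg/mL. MIC is taken as the lowest concentration that inhibits growth. Panel includes recent clinical isolates resistant to methicillin, penicillin and/or vancomycin.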

[2] = test system: Escherichia coli
Outline: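 An MIC is reported for each organism as the least concentration giving inhibition, using broth dilution over 64-0.06 μg/mL with a 5×10^5 CFU/mL inoculum.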

[3] = test system: Staphylococcus sp.; conditions: broth dilution, 18 hours at 35° C.
Outline: as §1

[4] = test system: Streptococcus sp.
Outline: as §1

CC(c1ccccc1)C1NC(=O)CNC(=O)C(CO)NC(=O)C(C(O)C2CNC(=N)N2C2OC(CO)C(O)C(O)C2O)NC(=O)C(C(O)C2CNC(=N)N2)NC(=O)C(Cc2ccc(OC3OC(CO)C(OC4OC5COC(c6cccc(Cl)c6)OC5C(O)C4O)C(O)C3O)cc2)NC1=O (stereo not drawn) [Example 138, Cyclo[glycyl-β-methylphenylalanyl-O-[4-O-[4,6-O-(3-chlorobenzylidene)hexopyranosyl]-hexopyranosyl]tyrosyl-3-(2-iminoimidazolidin-4-yl)seryl-3-(3-hexopyranosyl-2-iminoimidazolidin-4-yl)serylseryl]]
MIC Enterococcus faecalis (ATCC 29212) ([1]; strain ATCC 29212): 4 mg/L (≈ 2.82 µM)
MIC Enterococcus faecalis (GC 2242) ([1]; strain GC 2242): 4 mg/L (≈ 2.82 µM)
MIC Enterococcus faecium (GC 2243) ([1]; strain GC 2243): 4 mg/L (≈ 2.82 µM)
MIC Enterococcus faecalis (GC 2691) ([1]; strain GC 2691): 8 mg/L (≈ 5.64 µM)
MIC Enterococcus faecalis (GC 3059) ([1]; strain GC 3059): 4 mg/L (≈ 2.82 µM)
MIC Enterococcus faecalis (GC 4552) ([1]; strain GC 4552): 4 mg/L (≈ 2.82 µM)
MIC Enterococcus faecalis (GC 4553) ([1]; strain GC 4553): 8 mg/L (≈ 5.64 µM)
MIC Enterococcus faecalis (GC 4554) ([1]; strain GC 4554): 8 mg/L (≈ 5.64 µM)
MIC Enterococcus faecium (GC 4556) ([1]; strain GC 4556): 8 mg/L (≈ 5.64 µM)
MIC Enterococcus faecium (GC 4557) ([1]; strain GC 4557): 2 mg/L (≈ 1.41 µM)
MIC Enterococcus avium (GC 4558) ([1]; strain GC 4558): 4 mg/L (≈ 2.82 µM)
MIC Enterococcus faecalis (GC 6189) ([1]; strain GC 6189): 4 mg/L (≈ 2.82 µM)
MIC Escherichia coli (ATCC 25922) ([2]; strain ATCC 25922): 64 mg/L (≈ 45.1 µM)
MIC Escherichia coli (GC 4559) ([2]; strain GC 4559): 64 mg/L (≈ 45.1 µM)
MIC Escherichi coli (GC 4560) ([2]; strain GC 4560): 0.5 mg/L (≈ 0.353 µM)
MIC Coagulase Negative Staphylococcus (GC 4547) ([3]; 5×10^5 CFU/mL): 4 mg/L (≈ 2.82 µM)
MIC Coagulase Negative Staphylococcus (GC 4548) ([3]; 5×10^5 CFU/mL): 1 mg/L (≈ 0.705 µM)
MIC Coagulase Negative Staphylococcus (GC 4549) ([3]; 5×10^5 CFU/mL): 1 mg/L (≈ 0.705 µM)
MIC Coagulase Negative Staphylococcus (GC 4551) ([3]; 5×10^5 CFU/mL): 2 mg/L (≈ 1.41 µM)
MIC Coagulase Negative Staphylococcus (GC 6257) ([3]; 5×10^5 CFU/mL): 2 mg/L (≈ 1.41 µM)
MIC Staphylococcus aureus (ATCC 29213) ([3]; 5×10^5 CFU/mL): 2 mg/L (≈ 1.41 µM)
MIC Staphylococcus aureus (GC 1131) ([3]; 5×10^5 CFU/mL): 2 mg/L (≈ 1.41 µM)
MIC Staphylococcus aureus (GC 3051) ([3]; 5×10^5 CFU/mL): 2 mg/L (≈ 1.41 µM)
MIC Staphylococcus aureus (GC 3053) ([3]; 5×10^5 CFU/mL): 2 mg/L (≈ 1.41 µM)
MIC Staphylococcus aureus (GC 4541) ([3]; 5×10^5 CFU/mL): 2 mg/L (≈ 1.41 µM)
MIC Staphylococcus aureus (GC 4542) ([3]; 5×10^5 CFU/mL): 2 mg/L (≈ 1.41 µM)
MIC Staphylococcus aureus (GC 4544) ([3]; 5×10^5 CFU/mL): 2 mg/L (≈ 1.41 µM)
MIC Staphylococcus aureus (GC 4545) ([3]; 5×10^5 CFU/mL): 2 mg/L (≈ 1.41 µM)
MIC Staphylococcus aureus-SMITH (GC 4543) ([3]; 5×10^5 CFU/mL): 1 mg/L (≈ 0.705 µM)
MIC Staphylococcus haemolyticus (GC 4546) ([3]; 5×10^5 CFU/mL): 2 mg/L (≈ 1.41 µM)
MIC Staphylococcus aureus (ATCC 29213) ([3]; strain ATCC 29213): 2 mg/L (≈ 1.41 µM)
MIC Staphylococcus aureus (GC 1131) ([3]; strain GC 1131): 2 mg/L (≈ 1.41 µM)
MIC Staphylococcus aureus (GC 3051) ([3]; strain GC 3051): 2 mg/L (≈ 1.41 µM)
MIC Staphylococcus aureus (GC 3053) ([3]; strain GC 3053): 2 mg/L (≈ 1.41 µM)
MIC Staphylococcus aureus (GC 4541) ([3]; strain GC 4541): 2 mg/L (≈ 1.41 µM)
MIC Staphylococcus aureus (GC 4542) ([3]; strain GC 4542): 2 mg/L (≈ 1.41 µM)
MIC Staphylococcus aureus-SMITH (GC 4543) ([3]; strain GC 4543): 1 mg/L (≈ 0.705 µM)
MIC Staphylococcus aureus (GC 4544) ([3]; strain GC 4544): 2 mg/L (≈ 1.41 µM)
MIC Staphylococcus aureus (GC 4545) ([3]; strain GC 4545): 2 mg/L (≈ 1.41 µM)
MIC Staphylococcus haemolyticus (GC 4546) ([3]; strain GC 4546): 2 mg/L (≈ 1.41 µM)
MIC Coagulase Negative Staphylococcus (GC 4547) ([3]; strain GC 4547): 4 mg/L (≈ 2.82 µM)
MIC Coagulase Negative Staphylococcus (GC 4548) ([3]; strain GC 4548): 1 mg/L (≈ 0.705 µM)
MIC Coagulase Negative Staphylococcus (GC 4549) ([3]; strain GC 4549): 1 mg/L (≈ 0.705 µM)
MIC Coagulase Negative Staphylococcus (GC 4551) ([3]; strain GC 4551): 2 mg/L (≈ 1.41 µM)
MIC Coagulase Negative Staphylococcus (GC 6257) ([3]; strain GC 6257): 2 mg/L (≈ 1.41 µM)
MIC Streptococcus pneumoniae (ATCC 6301) ([4]; strain ATCC 6301): <0.06 mg/L
MIC Streptococcus pneumoniae (GC 1894) ([4]; strain GC 1894): <0.06 mg/L
MIC Streptococcus pyogenes (GC 4563) ([4]; strain GC 4563): 0.25 mg/L (≈ 0.176 µM)
MIC Streptococcus agalactiae (GC 4564) ([4]; strain GC 4564): 0.12 mg/L (≈ 0.0846 µM)
MIC Streptococcus pneumoniae (GC 4565) ([4]; strain GC 4565): <0.06 mg/L
